Laboratory results published in patent US20240409556A1, “BENZOPIPERAZINE AND RELATED ANALOGS FOR INHIBITING YAP/TAZ-TEAD” (Springworks Therapeutics, Inc., priority 2023, published 2024).

Tested on: YAP/TAZ-TEAD transcription
Assay: Reporter gene assay for measuring the inhibition of YAP/TAZ-TEAD transcription (TEAD-responsive element luciferase reporter in Hek293T cells)
Format: cell-based
Details: Homo sapiens, HEK-293T, 24 h, 24 hours incubation
How it was run: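 HEK293T cells transiently transfected with a TEAD-responsive luciferase reporter were exposed to compounds for 24 h at 37° C/5% CO2, then luminescence was read. Percent inhibition normalised to vehicle (0%) and positive-control inhibitor (100%); IC50 derived.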

SMILES	IC50
O=C(O)C1CCN2c3ccc(Cl)cc3N(c3ccc(C(F)(F)F)cc3)CC2C1 (stereo not drawn) [compound 104, (cis)- or (trans)-3-chloro-5-(4-(trifluoromethyl)phenyl)-6,6a,7,8,9,10-hexahydro-5H-pyrido[1,2-a]quinoxaline-8-carboxylic acid]	1000 to 10000 nM
O=C(O)C1CCN2c3c(Cl)cccc3N(c3ccc(C(F)(F)F)cc3)CC2C1 (stereo not drawn) [compound 105, (cis)- or (trans)-1-chloro-5-(4-(trifluoromethyl)phenyl)-6,6a,7,8,9,10-hexahydro-5H-pyrido[1,2-a]quinoxaline-8-carboxylic acid]	< 1000 nM
O=C(O)C1CCN2c3cc(Cl)ccc3N(c3ccc(C(F)(F)F)cc3)CC2C1 (stereo not drawn) [compound 106, (cis)- or (trans)-2-chloro-5-(4-(trifluoromethyl)phenyl)-6,6a,7,8,9,10-hexahydro-5H-pyrido[1,2-a]quinoxaline-8-carboxylic acid]	< 1000 nM
CC(=O)NCC1CN(c2ccc(C(F)(F)F)cc2)c2ccc(OC(F)F)nc2O1 (stereo not drawn) [compound 108, N-((6-(difluoromethoxy)-1-(4-(trifluoromethyl)phenyl)-2,3-dihydro-1H-pyrido[2,3-b][1,4]oxazin-3-yl)methyl)acetamide]	1000 to 10000 nM
O=C(O)C1CCN(c2ccccc2Nc2ccc(C(F)(F)F)cc2)CC1 [compound 111, 1-(2-((4-(trifluoromethyl)phenyl)amino)phenyl)piperidine-4-carboxylic acid]	< 1000 nM
CC(=O)NCC1CN(c2ccc(C(F)(F)F)cc2)c2ccc(C(F)F)nc2O1 (stereo not drawn) [compound 112, N-((6-(difluoromethyl)-1-(4-(trifluoromethyl)phenyl)-2,3-dihydro-1H-pyrido[2,3-b][1,4]oxazin-3-yl)methyl)acetamide]	< 1000 nM
CC1(C(=O)O)CCN2c3ccccc3N(c3ccc(C(F)(F)F)cc3)CC2C1 (stereo not drawn) [compound 114, (cis)- or (trans)-8-methyl-5-(4-(trifluoromethyl)phenyl)-6,6a,7,8,9,10-hexahydro-5H-pyrido[1,2-a]quinoxaline-8-carboxylic acid]	< 1000 nM
CN(c1ccc(C(F)(F)F)cc1)c1ccccc1N1CCC(C(=O)O)CC1 [compound 118, 1-(2-(methyl(4-(trifluoromethyl)phenyl)amino)phenyl)piperidine-4-carboxylic acid]	1000 to 10000 nM
O=C(O)C1CCN(c2ccccc2Nc2ccc(C(F)(F)F)cc2)C(=O)C1 (stereo not drawn) [compound 119, 2-oxo-1-(2-((4-(trifluoromethyl)phenyl)amino)phenyl)piperidine-4-carboxylic acid]	> 10000 nM
O=C(O)C1CCN(c2ccccc2Oc2ccc(C(F)(F)F)cc2)CC1 [compound 120, 1-(2-(4-(trifluoromethyl)phenoxy)phenyl)piperidine-4-carboxylic acid]	< 1000 nM
O=C(O)C1CCN(c2ncccc2Nc2ccc(C(F)(F)F)cc2)CC1 [compound 124, 1-(3-((4-(trifluoromethyl)phenyl)amino)pyridin-2-yl)piperidine-4-carboxylic acid]	< 1000 nM
Cc1ccc(Nc2ccc(C(F)(F)F)cc2)c(N2CCC(C(=O)O)CC2)n1 [compound 125, 1-(6-methyl-3-((4-(trifluoromethyl)phenyl)amino)pyridin-2-yl)piperidine-4-carboxylic acid]	< 1000 nM

Next, values leading:

IC50	SMILES
< 1000 nM	CNC(=O)O[C@@H]1C[C@@H]2CN(c3ccc(C(F)(F)F)cc3)c3cccnc3N2C1 [compound 92, (6aR,8R)-5-(4-(trifluoromethyl)phenyl)-5,6,6a,7,8,9-hexahydropyrido[3,2-e]pyrrolo[1,2-a]pyrazin-8-yl methylcarbamate]
< 1000 nM	CC(=O)N[C@@H]1C[C@@H]2CN(c3ccc(C(F)(F)F)cc3)c3cc(C)cnc3N2C1 [compound 93, N-((6aR,8R)-3-methyl-5-(4-(trifluoromethyl)phenyl)-5,6,6a,7,8,9-hexahydropyrido[3,2-e]pyrrolo[1,2-a]pyrazin-8-yl)acetamide]
1000 to 10000 nM	O=C(O)CC(=O)N[C@@H]1C[C@@H]2CN(c3ccc(C(F)(F)F)cc3)c3cccnc3N2C1 [compound 94, 3-oxo-3-(((6aR,8R)-5-(4-(trifluoromethyl)phenyl)-5,6,6a,7,8,9-hexahydropyrido[3,2-e]pyrrolo[1,2-a]pyrazin-8-yl)amino)propanoic acid]
< 1000 nM	O=C(CO)N[C@@H]1C[C@@H]2CN(c3ccc(C(F)(F)F)cc3)c3cccnc3N2C1 [compound 95, 2-hydroxy-N-((6aR,8R)-5-(4-(trifluoromethyl)phenyl)-5,6,6a,7,8,9-hexahydropyrido[3,2-e]pyrrolo[1,2-a]pyrazin-8-yl)acetamide]
< 1000 nM	NCC(=O)N[C@@H]1C[C@@H]2CN(c3ccc(C(F)(F)F)cc3)c3cccnc3N2C1 [compound 97, 2-amino-N-((6aR,8R)-5-(4-(trifluoromethyl)phenyl)-5,6,6a,7,8,9-hexahydropyrido[3,2-e]pyrrolo[1,2-a]pyrazin-8-yl)acetamide]
< 1000 nM	CC(=O)N[C@@H]1C[C@@H]2CN(c3ccc(C(F)(F)F)cc3)c3cc(Cl)cnc3N2C1 [compound 98, N-((6aR,8R)-3-chloro-5-(4-(trifluoromethyl)phenyl)-5,6,6a,7,8,9-hexahydropyrido[3,2-e]pyrrolo[1,2-a]pyrazin-8-yl)acetamide]
> 10000 nM	N#C[C@@H]1C[C@@H]2CN(c3ccc(C(F)(F)F)cc3)c3cccnc3N2C1 [compound 103, (6aR,8R)-5-(4-(trifluoromethyl)phenyl)-5,6,6a,7,8,9-hexahydropyrido[3,2-e]pyrrolo[1,2-a]pyrazine-8-carbonitrile]
< 1000 nM	CC(C)(O)C(=O)N[C@@H]1C[C@@H]2CN(c3ccc(C(F)(F)F)cc3)c3cccnc3N2C1 [compound 110, 2-hydroxy-2-methyl-N-((6aR,8R)-5-(4-(trifluoromethyl)phenyl)-5,6,6a,7,8,9-hexahydropyrido[3,2-e]pyrrolo[1,2-a]pyrazin-8-yl)propanamide]
1000 to 10000 nM	O=C(O)[C@H]1C[C@@H]2CN(c3ccc(C(F)(F)F)cc3)c3cccnc3N2C1 [compound 113, (6aR,8S)-5-(4-(trifluoromethyl)phenyl)-5,6,6a,7,8,9-hexahydropyrido[3,2-e]pyrrolo[1,2-a]pyrazine-8-carboxylic acid]
